From ChEMBL document CHEMBL3885881, “DrugMatrix”

Organism: Rattus norvegicus
Test: DrugMatrix - Regimen: Daily Repeat
Type: toxicity, organism-based, Sprague-Dawley
Parameters: regimen Daily Repeat, gender Male, age 6-8 weeks
Conditions: in vivo, po, route oral GAVAGE, vehicle .5 % CMC; for ABSOLUTE BASOPHIL / ABSOLUTE EOSINOPHIL / ABSOLUTE LYMPHOCYTE / ABSOLUTE MONOCYTE / ABSOLUTE SEGMENTED NEUTROPHIL / BASOPHIL / EOSINOPHIL / ERYTHROCYTE COUNT / HEMATOCRIT / HEMOGLOBIN / LEUKOCYTE COUNT / LYMPHOCYTE / MEAN CORPUSCULAR HEMOGLOBIN / MEAN CORPUSCULAR HEMOGLOBIN CONCENTRATION / MEAN CORPUSCULAR VOLUME / MONOCYTE / NEUTROPHIL / NUCLEATED RED BLOOD CELLS / PLATELET COUNT: tissue Blood; for ALANINE AMINOTRANSFERASE / ALBUMIN / ALKALINE PHOSPHATASE / ASPARTATE AMINOTRANSFERASE / BLOOD UREA NITROGEN / CARBON DIOXIDE / CHLORIDE / CHOLESTEROL / CREATINE PHOSPHOKINASE / CREATININE / GLUCOSE / LACTATE DEHYDROGENASE / LIPASE / PHOSPHORUS / POTASSIUM / SODIUM / TOTAL BILIRUBIN / TOTAL PROTEIN / URIC ACID: tissue Plasma
[1] = 100 mg/kg, 120 h, dose level Low, time 5 day
[2] = 501 mg/kg, 72 h, dose level High, time 3 day
[3] = 501 mg/kg, 120 h, dose level High, time 5 day

## CCc1ccc(C(=O)C(C)CN2CCCCC2)cc1 (centres undefined) [EPERISONE]
[1]
  ABSOLUTE BASOPHIL: 0 CELLS/uL
  ABSOLUTE EOSINOPHIL: 0 CELLS/uL
  ABSOLUTE LYMPHOCYTE: 13749 CELLS/uL
  ABSOLUTE MONOCYTE: 246.33 CELLS/uL
  ABSOLUTE SEGMENTED NEUTROPHIL: 1338 CELLS/uL
  BASOPHIL: 0%
  EOSINOPHIL: 0%
  ERYTHROCYTE COUNT: 5.46 x10E6/uL
  HEMATOCRIT: 34.27%
  HEMOGLOBIN: 13.2 G/DL
  LEUKOCYTE COUNT: 15.33 x10E3/uL
  LYMPHOCYTE: 89.67%
  MEAN CORPUSCULAR HEMOGLOBIN: 24.17 pg
  MEAN CORPUSCULAR HEMOGLOBIN CONCENTRATION: 38.53 G/DL
  MEAN CORPUSCULAR VOLUME: 62.83 fL
  MONOCYTE: 1.67%
  NEUTROPHIL: 8.67%
  NUCLEATED RED BLOOD CELLS: 0 /100WBC
  PLATELET COUNT: 1278.33 x10E3/uL
  ALANINE AMINOTRANSFERASE: 50 u/L
  ALBUMIN: 4.27 G/DL
  ALKALINE PHOSPHATASE: 325.67 u/L
  ASPARTATE AMINOTRANSFERASE: 101.33 u/L
  BLOOD UREA NITROGEN: 17.33 mg/dL
  CARBON DIOXIDE: 25.33 mmol/L
  CHLORIDE: 106 MEQ/L
  CHOLESTEROL: 66.33 mg/dL
  CREATINE PHOSPHOKINASE: 609 u/L
  CREATININE: 0.21 mg/dL
  GLUCOSE: 159 mg/dL
  LACTATE DEHYDROGENASE: 465 u/L
  LIPASE: 9.67 u/L
  PHOSPHORUS: 13.17 mg/dL
  POTASSIUM: 6.21 MEQ/L
  SODIUM: 144.2 MEQ/L
  TOTAL BILIRUBIN: 0.13 mg/dL
  TOTAL PROTEIN: 5.9 G/DL
  URIC ACID: 1.77 mg/dL
[2]
  ABSOLUTE BASOPHIL: 0 CELLS/uL
  ABSOLUTE EOSINOPHIL: 0 CELLS/uL
  ABSOLUTE LYMPHOCYTE: 13225.33 CELLS/uL
  ABSOLUTE MONOCYTE: 319.33 CELLS/uL
  ABSOLUTE SEGMENTED NEUTROPHIL: 888.67 CELLS/uL
  BASOPHIL: 0%
  EOSINOPHIL: 0%
  ERYTHROCYTE COUNT: 5.61 x10E6/uL
  HEMATOCRIT: 35.1%
  HEMOGLOBIN: 13.27 G/DL
  LEUKOCYTE COUNT: 14.43 x10E3/uL
  LYMPHOCYTE: 91.33%
  MEAN CORPUSCULAR HEMOGLOBIN: 23.63 pg
  MEAN CORPUSCULAR HEMOGLOBIN CONCENTRATION: 37.83 G/DL
  MEAN CORPUSCULAR VOLUME: 62.53 fL
  MONOCYTE: 2.33%
  NEUTROPHIL: 6.33%
  NUCLEATED RED BLOOD CELLS: 0 /100WBC
  PLATELET COUNT: 1433.33 x10E3/uL
  ALANINE AMINOTRANSFERASE: 58.67 u/L
  ALBUMIN: 3.97 G/DL
  ALKALINE PHOSPHATASE: 399 u/L
  ASPARTATE AMINOTRANSFERASE: 91.67 u/L
  BLOOD UREA NITROGEN: 14.33 mg/dL
  CARBON DIOXIDE: 25 mmol/L
  CHLORIDE: 103.67 MEQ/L
  CHOLESTEROL: 64.67 mg/dL
  CREATINE PHOSPHOKINASE: 345 u/L
  CREATININE: 0.23 mg/dL
  GLUCOSE: 157.67 mg/dL
  LACTATE DEHYDROGENASE: 414.67 u/L
  LIPASE: 9 u/L
  PHOSPHORUS: 11.17 mg/dL
  POTASSIUM: 6.18 MEQ/L
  SODIUM: 143.13 MEQ/L
  TOTAL BILIRUBIN: 0.2 mg/dL
  TOTAL PROTEIN: 5.33 G/DL
  URIC ACID: 2.03 mg/dL
[3]
  ABSOLUTE BASOPHIL: 0 CELLS/uL
  ABSOLUTE EOSINOPHIL: 46.67 CELLS/uL
  ABSOLUTE LYMPHOCYTE: 15630.33 CELLS/uL
  ABSOLUTE MONOCYTE: 287 CELLS/uL
  ABSOLUTE SEGMENTED NEUTROPHIL: 969.33 CELLS/uL
  BASOPHIL: 0%
  EOSINOPHIL: 0.33%
  ERYTHROCYTE COUNT: 5.98 x10E6/uL
  HEMATOCRIT: 36.77%
  HEMOGLOBIN: 13.93 G/DL
  LEUKOCYTE COUNT: 16.93 x10E3/uL
  LYMPHOCYTE: 92.33%
  MEAN CORPUSCULAR HEMOGLOBIN: 23.33 pg
  MEAN CORPUSCULAR HEMOGLOBIN CONCENTRATION: 37.93 G/DL
  MEAN CORPUSCULAR VOLUME: 61.5 fL
  MONOCYTE: 1.67%
  NEUTROPHIL: 5.67%
  NUCLEATED RED BLOOD CELLS: 0 /100WBC
  PLATELET COUNT: 1391 x10E3/uL
  ALANINE AMINOTRANSFERASE: 69 u/L
  ALBUMIN: 4.43 G/DL
  ALKALINE PHOSPHATASE: 394.33 u/L
  ASPARTATE AMINOTRANSFERASE: 96.33 u/L
  BLOOD UREA NITROGEN: 16 mg/dL
  CARBON DIOXIDE: 28 mmol/L
  CHLORIDE: 106.33 MEQ/L
  CHOLESTEROL: 63.33 mg/dL
  CREATINE PHOSPHOKINASE: 1265 u/L
  CREATININE: 0.3 mg/dL
  GLUCOSE: 145.67 mg/dL
  LACTATE DEHYDROGENASE: 187.33 u/L
  LIPASE: 9.33 u/L
  PHOSPHORUS: 12.2 mg/dL
  POTASSIUM: 6.24 MEQ/L
  SODIUM: 145.8 MEQ/L
  TOTAL BILIRUBIN: 0.2 mg/dL
  TOTAL PROTEIN: 6.07 G/DL
  URIC ACID: 1.97 mg/dL
